Assay results taken from PMC12396409, “Screening and hit evaluation of a microbial metabolite library against the pathogenic Plasmodium falciparum and Toxoplasma gondii parasites” (International Journal for Parasitology: Drugs and Drug …, 2025).
Where two headings read alike, the source gives them in different places. Where a SMILES comes first, the peptide text is derived from it. [ ]: non-standard residue; d: D form. d(aIle) = CC[C@H](C)[C@@H](N)C(=O)O; NMeL = CN[C@@H](CC(C)C)C(=O)O; Hiv = CC(C)[C@H](O)C(=O)O

How the values were obtained:
[1] = system: T. gondii RH strain (RH-Tub-eYFP) tachyzoites; test: microbe, parasite or virus in culture; assay type: cell-based, Toxoplasma gondii; conditions: for percent parasite growth at 2 µg/mL: Toxoplasma gondii; for percent parasite growth at 2 µg/mL / Tg_72h_%Growth_Rep1 / Tg_72h_%Growth_Rep2: 72 h
[2] = system: P. falciparum 3D7 parasites; test: P. falciparum growth inhibition assay, 1-cycle (72 h treatment), SYBR DNA staining (library screen at 2 μg/mL and dose-response); assay type: cell-based, Plasmodium falciparum; conditions: for activity at 2 µg/mL: Plasmodium falciparum
[3] = system: P. falciparum 3D7 parasites; test: P. falciparum growth inhibition assay, 2-cycle (120 h treatment), delayed-death screen and dose-response; assay type: cell-based, Plasmodium falciparum; conditions: for activity at 2 µg/mL: Plasmodium falciparum
[4] = T. gondii, screen at 2 μg/mL, replicate 1, read-out: Tg_72h_%Growth_Rep1
[5] = T. gondii, screen at 2 μg/mL, replicate 2, read-out: Tg_72h_%Growth_Rep2
[6] = 3D7, 72 h, P. falciparum, 72 h, screen at 2 μg/mL, replicate 1, read-out: Pf_72h_%Growth_Rep1
[7] = 3D7, 72 h, P. falciparum, 72 h, screen at 2 μg/mL, replicate 2, read-out: Pf_72h_%Growth_Rep2
[8] = 3D7, 120 h, P. falciparum, 120 h, screen at 2 μg/mL, replicate 1, read-out: Pf_120h_%Growth_Rep1
[9] = 3D7, 120 h, P. falciparum, 120 h, screen at 2 μg/mL, replicate 2, read-out: Pf_120h_%Growth_Rep2
[10] = 3D7, P. falciparum, 72 h, screen at 2 μg/mL, replicate 1, read-out: Pf_72h_%Growth_Rep1
[11] = 3D7, P. falciparum, 72 h, screen at 2 μg/mL, replicate 2, read-out: Pf_72h_%Growth_Rep2
[12] = 3D7, P. falciparum, 120 h, screen at 2 μg/mL, replicate 1, read-out: Pf_120h_%Growth_Rep1
[13] = 3D7, P. falciparum, 120 h, screen at 2 μg/mL, replicate 2, read-out: Pf_120h_%Growth_Rep2
[14] = T. gondii, screen at 2 μg/mL, replicate 1
[15] = T. gondii, screen at 2 μg/mL, replicate 2
[16] = P. falciparum, 72 h, screen at 2 μg/mL, replicate 1
[17] = P. falciparum, 72 h, screen at 2 μg/mL, replicate 2
[18] = P. falciparum, 120 h, screen at 2 μg/mL, replicate 1
[19] = P. falciparum, 120 h, screen at 2 μg/mL, replicate 2
[20] = library screen at 2 μg/mL, % growth, replicate 1
[21] = library screen at 2 μg/mL, % growth, replicate 2
[22] = library screen at 2 μg/mL, 72 h, % growth, replicate 1
[23] = library screen at 2 μg/mL, 72 h, % growth, replicate 2
[24] = library screen at 2 μg/mL, 120 h, % growth, replicate 1
[25] = library screen at 2 μg/mL, 120 h, % growth, replicate 2
[26] = active against the parasite at 2 μg/mL, no anti-tumour (NS-1) or cytotoxic (fibroblast) activity at 5 μg/mL

SMILES: C[C@H]1CCC/C=C/[C@@H]2C[C@H](O)C[C@H]2[C@H](O)/C=C/C(=O)O1 [Brefeldin A]
- percent parasite growth at 2 µg/mL [1, 4]: -1.55%
- percent parasite growth at 2 µg/mL [1, 5]: 0.61%
- activity at 2 µg/mL [2, 6]: 4.33%
- activity at 2 µg/mL [2, 7]: -0.69%
- activity at 2 µg/mL [3, 8]: 5.53%
- activity at 2 µg/mL [3, 9]: 2.87%

SMILES: COC(=O)c1cc(O)cc(OC)c1C(=O)c1c(O)cc(C)cc1O [Sulochrin]
- percent parasite growth at 2 µg/mL ([1]; T. gondii, parasite screen 2 μg/mL, % growth, replicate 1, read-out: Tg_72h_%Growth_Rep1): 153%
- percent parasite growth at 2 µg/mL ([1]; T. gondii, parasite screen 2 μg/mL, % growth, replicate 2, read-out: Tg_72h_%Growth_Rep2): 100%
- activity at 2 µg/mL ([2]; 3D7, P. falciparum, 72 h, parasite screen 2 μg/mL, % growth, replicate 1, read-out: Pf_72h_%Growth_Rep1): 88.9%
- activity at 2 µg/mL ([2]; 3D7, P. falciparum, 72 h, parasite screen 2 μg/mL, % growth, replicate 2, read-out: Pf_72h_%Growth_Rep2): 90.8%
- activity at 2 µg/mL ([3]; 3D7, P. falciparum, 120 h, parasite screen 2 μg/mL, % growth, replicate 1, read-out: Pf_120h_%Growth_Rep1): 93.2%
- activity at 2 µg/mL ([3]; 3D7, P. falciparum, 120 h, parasite screen 2 μg/mL, % growth, replicate 2, read-out: Pf_120h_%Growth_Rep2): 96.4%

SMILES: COc1cc(C)c2c(OC)cc(=O)oc2c1-c1c(OC)cc(C)c2c(OC)cc(=O)oc12 [BIA-K1634]
- Tg_72h_%Growth_Rep1 ([1]; T. gondii RH, library screen at 2 μg/mL, % growth, replicate 1): 128.61%
- Tg_72h_%Growth_Rep2 ([1]; T. gondii RH, library screen at 2 μg/mL, % growth, replicate 2): 101.38%
- Pf_72h_%Growth_Rep1 ([2]; P. falciparum 3D7, 72 h, library screen at 2 μg/mL, % growth, replicate 1): 79.71%
- Pf_72h_%Growth_Rep2 ([2]; P. falciparum 3D7, 72 h, library screen at 2 μg/mL, % growth, replicate 2): 89.27%
- Pf_120h_%Growth_Rep1 ([3]; P. falciparum 3D7, 120 h, library screen at 2 μg/mL, % growth, replicate 1): 81.50%
- Pf_120h_%Growth_Rep2 ([3]; P. falciparum 3D7, 120 h, library screen at 2 μg/mL, % growth, replicate 2): 124.49%

SMILES: COc1cc(-c2ccc(O)cc2)c(OC)c(O)c1-c1ccc(O)cc1 [Terphenyllin]
- percent parasite growth at 2 µg/mL [1, 4]: 84.9%
- percent parasite growth at 2 µg/mL [1, 5]: 103%
- activity at 2 µg/mL [2, 10]: 87.2%
- activity at 2 µg/mL [2, 11]: 91.8%
- activity at 2 µg/mL [3, 12]: 179%
- activity at 2 µg/mL [3, 13]: 102%

SMILES: N#Cc1cn([C@@H]2O[C@H](CO)[C@@H](O)[C@H]2O)c2ncnc(N)c12 [Toyocamycin]
- percent parasite growth at 2 µg/mL [1, 4]: 0.78%
- percent parasite growth at 2 µg/mL [1, 5]: 1.19%
- activity at 2 µg/mL [2, 6]: 2.78%
- activity at 2 µg/mL [2, 7]: 4.02%
- activity at 2 µg/mL [3, 8]: 25.6%
- activity at 2 µg/mL [3, 9]: 6.44%

SMILES: COc1cc(C)c(C(=O)Oc2cc(C)c(C(=O)O)c(O)c2)c(O)c1 [Evernic acid]
- percent parasite growth at 2 µg/mL ([1]; library screen at 2 μg/mL, % growth, replicate 1, read-out: Tg_72h_%Growth_Rep1): 133%
- percent parasite growth at 2 µg/mL ([1]; library screen at 2 μg/mL, % growth, replicate 2, read-out: Tg_72h_%Growth_Rep2): 102%
- activity at 2 µg/mL ([2]; 3D7, library screen at 2 μg/mL, 72 h, % growth, replicate 1, read-out: Pf_72h_%Growth_Rep1): 86.3%
- activity at 2 µg/mL ([2]; 3D7, library screen at 2 μg/mL, 72 h, % growth, replicate 2, read-out: Pf_72h_%Growth_Rep2): 86.5%
- activity at 2 µg/mL ([3]; 3D7, library screen at 2 μg/mL, 120 h, % growth, replicate 1, read-out: Pf_120h_%Growth_Rep1): 97.5%
- activity at 2 µg/mL ([3]; 3D7, library screen at 2 μg/mL, 120 h, % growth, replicate 2, read-out: Pf_120h_%Growth_Rep2): 94.9%

SMILES: CC1=CCC2CC(CC3(CCC(C)C(C)O3)O2)OC(=O)C2C=C(C)C(O)C3OCC(=CC=CC(C)C1)C23O (centres unmarked) [BIA-M1051]
- Tg_72h_%Growth_Rep1 ([1]; T. gondii, parasite screen at 2 μg/mL, % growth, replicate 1): 114.92%
- Tg_72h_%Growth_Rep2 ([1]; T. gondii, parasite screen at 2 μg/mL, % growth, replicate 2): 98.32%
- Pf_72h_%Growth_Rep1 ([2]; P. falciparum 3D7, 72 h, parasite screen at 2 μg/mL, % growth, replicate 1): 47.24%
- Pf_72h_%Growth_Rep2 ([2]; P. falciparum 3D7, 72 h, parasite screen at 2 μg/mL, % growth, replicate 2): 1.70%
- Pf_120h_%Growth_Rep1 ([3]; P. falciparum 3D7, 120 h, parasite screen at 2 μg/mL, % growth, replicate 1): 10.36%
- Pf_120h_%Growth_Rep2 ([3]; P. falciparum 3D7, 120 h, parasite screen at 2 μg/mL, % growth, replicate 2): 24.90%

SMILES: O=C(O)c1cccc2nc3ccccc3nc12 [Tubermycin B]
- Tg_72h_%Growth_Rep1 [1, 14]: 87.24%
- Tg_72h_%Growth_Rep2 [1, 15]: 96.39%
- Pf_72h_%Growth_Rep1 [2, 16]: 44.49%
- Pf_72h_%Growth_Rep2 [2, 17]: 34.95%
- Pf_120h_%Growth_Rep1 [3, 18]: 88.83%
- Pf_120h_%Growth_Rep2 [3, 19]: 26.83%

SMILES: C=C1CCO[C@]2([C@@H](O)[C@@](C)(O)COC(=O)c3ccccc3)NC(=O)[C@@]1(O)NC2=O [Bicyclomycin benzoate]
- Tg_72h_%Growth_Rep1 [1, 20]: 81.93%
- Tg_72h_%Growth_Rep2 [1, 21]: 95.48%
- Pf_72h_%Growth_Rep1 [2, 22]: 94.43%
- Pf_72h_%Growth_Rep2 [2, 23]: 88.43%
- Pf_120h_%Growth_Rep1 [3, 24]: 148.77%
- Pf_120h_%Growth_Rep2 [3, 25]: 99.84%

SMILES: COC(=O)/C(=C1/OC(=O)C(c2ccccc2)=C1O)c1ccccc1 [Vulpinic acid]
- percent parasite growth at 2 µg/mL [1, 4]: 109%
- percent parasite growth at 2 µg/mL [1, 5]: 97.7%
- activity at 2 µg/mL [2, 10]: 79.7%
- activity at 2 µg/mL [2, 11]: 129%
- activity at 2 µg/mL [3, 12]: 84.9%
- activity at 2 µg/mL [3, 13]: 103%

SMILES: COc1oc([C@H]2C/C(=C/C(C)=C/c3ccc([N+](=O)[O-])cc3)CO2)c(C)c(=O)c1C [Aureothin]
- Tg_72h_%Growth_Rep1 [1, 20]: 66.52%
- Tg_72h_%Growth_Rep2 [1, 21]: 65.05%
- Pf_72h_%Growth_Rep1 [2, 22]: 103.52%
- Pf_72h_%Growth_Rep2 [2, 23]: 87.70%
- Pf_120h_%Growth_Rep1 [3, 24]: 128.40%
- Pf_120h_%Growth_Rep2 [3, 25]: 61.20%

SMILES: CC[C@H](C)[C@H]1NC(=O)[C@H](C(C)C)OC(=O)[C@H](CC(C)C)N(C)C(=O)[C@H](C(C)C)NC(=O)[C@H](C(C)C)OC(=O)[C@@H](CC(C)C)NC1=O [Sporidesmolide II] (cyclo([Hiv]V[NMeL][Hiv][d(aIle)][dL]))
- Tg_72h_%Growth_Rep1 ([1]; T. gondii, parasite screen 2 μg/mL, % growth, replicate 1): 96.52%
- Tg_72h_%Growth_Rep2 ([1]; T. gondii, parasite screen 2 μg/mL, % growth, replicate 2): 86.44%
- Pf_72h_%Growth_Rep1 ([2]; P. falciparum, 72 h, parasite screen 2 μg/mL, % growth, replicate 1): 88.48%
- Pf_72h_%Growth_Rep2 ([2]; P. falciparum, 72 h, parasite screen 2 μg/mL, % growth, replicate 2): 54.25%
- Pf_120h_%Growth_Rep1 ([3]; P. falciparum, 120 h, parasite screen 2 μg/mL, % growth, replicate 1): 86.28%
- Pf_120h_%Growth_Rep2 ([3]; P. falciparum, 120 h, parasite screen 2 μg/mL, % growth, replicate 2): 130.73%

SMILES: C=C1[C@@H](C)[C@H]2[C@H](Cc3ccccc3)NC(=O)[C@]23[C@H](O)/C=C/[C@](C)(O)C[C@@H](C)C/C=C/[C@H]3[C@@H]1O [cytochalasin J]
- Tg_72h_%Growth_Rep1 [1, 14]: 4.83%
- Tg_72h_%Growth_Rep2 [1, 15]: 6.80%
- selectivity for T. gondii in the screens [1, 26]: active selectively against P. falciparum and T. gondii
- Pf_72h_%Growth_Rep1 [2, 16]: 6.03%
- Pf_72h_%Growth_Rep2 [2, 17]: 6.00%
- selectivity for P. falciparum in the screens [2, 26]: active selectively against P. falciparum and T. gondii
- Pf_120h_%Growth_Rep1 [3, 18]: 0.52%
- Pf_120h_%Growth_Rep2 [3, 19]: -0.13%

SMILES: CN(C)[C@@H]1C(O)=C(C(N)=O)C(=O)[C@@]2(O)C(O)=C3C(=O)c4c(O)cccc4[C@@](C)(O)[C@H]3C[C@@H]12 [Tetracycline]
- percent parasite growth at 2 µg/mL ([1]; read-out: Tg_72h_%Growth_Rep1): 103%
- percent parasite growth at 2 µg/mL ([1]; read-out: Tg_72h_%Growth_Rep2): 101%
- activity at 2 µg/mL [2, 10]: 62.1%
- activity at 2 µg/mL [2, 11]: 83.3%
- activity at 2 µg/mL [3, 12]: 164%
- activity at 2 µg/mL [3, 13]: 73.9%
